Target: T1, human RXFP1 (Homo sapiens, UniProt Q9HBX9)
T1 construct: expressed in transfected cells
T1 sequence (Q9HBX9 1-757): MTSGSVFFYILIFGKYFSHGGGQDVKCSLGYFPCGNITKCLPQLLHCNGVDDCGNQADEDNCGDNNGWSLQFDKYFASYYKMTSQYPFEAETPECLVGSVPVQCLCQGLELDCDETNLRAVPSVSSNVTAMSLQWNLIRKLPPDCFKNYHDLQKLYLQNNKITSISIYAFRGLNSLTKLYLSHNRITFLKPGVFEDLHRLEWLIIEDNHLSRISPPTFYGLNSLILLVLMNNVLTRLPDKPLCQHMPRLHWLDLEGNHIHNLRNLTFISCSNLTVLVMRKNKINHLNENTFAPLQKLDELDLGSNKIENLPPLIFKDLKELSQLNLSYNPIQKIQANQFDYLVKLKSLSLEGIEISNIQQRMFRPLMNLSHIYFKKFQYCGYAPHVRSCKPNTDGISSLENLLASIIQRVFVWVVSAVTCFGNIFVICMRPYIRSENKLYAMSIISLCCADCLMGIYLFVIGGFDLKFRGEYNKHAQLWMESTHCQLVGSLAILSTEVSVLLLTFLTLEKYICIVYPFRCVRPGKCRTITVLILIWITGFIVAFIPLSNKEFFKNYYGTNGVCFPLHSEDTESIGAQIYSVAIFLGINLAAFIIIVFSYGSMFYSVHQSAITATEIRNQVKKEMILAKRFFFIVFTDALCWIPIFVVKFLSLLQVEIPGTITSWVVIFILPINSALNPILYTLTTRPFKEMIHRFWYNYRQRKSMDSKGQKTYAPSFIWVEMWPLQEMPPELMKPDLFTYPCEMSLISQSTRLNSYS
Experiment: hRXFP1 HEK293 cAMP assay (HTRF)
Type: cell-based
Settings: HEK293 cells stably expressing human RXFP1; 30 min at rt; intracellular cAMP by HTRF
How it was run: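 Agonism is measured as cAMP by HTRF, quantified from a standard curve via the 665/590 nm ratio and fitted with a four-parameter logistic equation. Compounds (0.010 nM to 50 μM final, 2% DMSO) were applied for 30 min at rt to human RXFP1-expressing HEK293 cells in assay buffer containing 0.5 mM IBMX.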

COc1ccc(C(=O)NCCCO)cc1C(=O)Nc1c(C(=O)Nc2ccc(F)c(C(F)(F)F)c2)sc2cc(C(F)(F)F)ccc12 [Example 216, N3-(2-((4-fluoro-3-(trifluoromethyl)phenyl)carbamoyl)-6-(trifluoromethyl)benzo[b]thiophen-3-yl)-N1-(3-hydroxypropyl)-4-methoxy-isophthalamide]
EC50: 3490 nM

COc1ccc(C(=O)NCCO)cc1C(=O)Nc1c(C(=O)Nc2ccc(F)c(C(F)(F)F)c2)sc2cc(C(F)(F)F)ccc12 [Example 217, N3-(2-((4-fluoro-3-(trifluoromethyl)phenyl)carbamoyl)-6-(trifluoromethyl)benzo[b]thiophen-3-yl)-N1-(2-hydroxyethyl)-4-methoxy-isophthalamide]
EC50: 2290 nM

COCCNC(=O)c1ccc(OC)c(C(=O)Nc2c(C(=O)Nc3ccc(F)c(C(F)(F)F)c3)sc3cc(C(F)(F)F)ccc23)c1 [Example 218, N3-(2-((4-fluoro-3-(trifluoromethyl)phenyl)carbamoyl)-6-(trifluoromethyl)benzo[b]thiophen-3-yl)-4-methoxy-N1-(2-methoxyethyl) isophthalamide]
EC50: 1130 nM

COc1ccc(C(=O)N2CCC[C@@H](O)C2)cc1C(=O)Nc1c(C(=O)Nc2ccc(F)c(C(F)(F)F)c2)sc2cc(C(F)(F)F)ccc12 [Example 219, (R)-N-(4-fluoro-3-(trifluoromethyl)phenyl)-3-(5-(3-hydroxy-piperidine-1-carbonyl)-2-methoxy-benzamido)-6-(trifluoromethyl) benzo[b] thiophene-2-carboxamide]
EC50: 1140 nM

COc1ccc(C(=O)N(C)C)cc1C(=O)Nc1c(C(=O)Nc2ccc(F)c(C(F)(F)F)c2)sc2cc(C(F)(F)F)ccc12 [Example 220, N3-(2-((4-fluoro-3-(trifluoromethyl)phenyl)carbamoyl)-6-(trifluoromethyl)benzo[b]thiophen-3-yl)-4-methoxy-N1,N1-dimethyl-isophthalamide]
EC50: 2530 nM

COc1ccc(C(=O)N2CCOCC2)cc1C(=O)Nc1c(C(=O)Nc2ccc(F)c(C(F)(F)F)c2)sc2cc(C(F)(F)F)ccc12 [Example 221, N-(4-fluoro-3-(trifluoromethyl)phenyl)-3-(2-methoxy-5-(morpholine-4-carbonyl)benzamido)-6-(trifluoromethyl) benzo[b] thiophene-2-carboxamide]
EC50: 1100 nM

COc1ccc(C(=O)N2CCC3(CC2)COC3)cc1C(=O)Nc1c(C(=O)Nc2ccc(F)c(C(F)(F)F)c2)sc2cc(C(F)(F)F)ccc12 [Example 222, N-(4-fluoro-3-(trifluoromethyl)phenyl)-3-(2-methoxy-5-(2-oxa-7-azaspiro[3.5]nonane-7-carbonyl)benzamido)-6-(trifluoromethyl) benzo[b] thiophene-2-carboxamide]
EC50: 1610 nM

COc1ncc(C(=O)OC(C)(C)C)cc1C(=O)Nc1c(C(=O)Nc2ccc(F)c(C(F)(F)F)c2)sc2cc(C(F)(F)F)ccc12 [Example 223, tert-butyl 5-((2-((4-fluoro-3-(trifluoromethyl)phenyl)carbamoyl)-6-(trifluoromethyl)benzo[b]thiophen-3-yl)carbamoyl)-6-methoxynicotinate]
EC50: 1250 nM

COc1ccc(S(=O)(=O)N2CCC(C(C)(C)O)CC2)cc1C(=O)Nc1c(C(=O)Nc2ccc(F)c(C(F)(F)F)c2)sc2cc(C(F)(F)F)ccc12 [Example 225, N-(4-fluoro-3-(trifluoromethyl)phenyl)-3-(5-((4-(2-hydroxypropan-2-yl)piperidin-1-yl)sulfonyl)-2-methoxy-benzamido)-6-(trifluoromethyl) benzo[b] thiophene-2-carboxamide]
EC50: 1060 nM

COc1cc(C)c(C(=O)N2CC3(C2)CS(=O)(=O)C3)cc1C(=O)Nc1c(C(=O)Nc2ccc(F)c(C(F)(F)F)c2)sc2cc(C(F)(F)F)ccc12 [Example 226, 3-(5-(2,2-dioxido-2-thia-6-azaspiro[3.3]heptane-6-carbonyl)-2-methoxy-4-methylbenzamido)-N-(4-fluoro-3-(trifluoromethyl)phenyl)-6-(trifluoromethyl) benzo[b] thiophene-2-carboxamide]
EC50: 1760 nM

COc1ccc(C(=O)NCCS(C)(=O)=O)cc1C(=O)Nc1c(C(=O)Nc2ccc(F)c(C(F)(F)F)c2)sc2cc(C(F)(F)F)ccc12 [Example 232, N3-(2-((4-fluoro-3-(trifluoromethyl)phenyl)carbamoyl)-6-(trifluoromethyl)benzo[b]thiophen-3-yl)-4-methoxy-N1-(2-(methylsulfonyl)ethyl) isophthalamide]
EC50: 4840 nM

COc1ncc(N2CC3(COC3)C2)cc1C(=O)Nc1c(C(=O)Nc2ccc(F)c(C(F)(F)F)c2)sc2cc(C(F)(F)F)ccc12 [Example 233, N-(2-((4-fluoro-3-(trifluoromethyl)phenyl)carbamoyl)-6-(trifluoromethyl)benzo[b]thiophen-3-yl)-2-methoxy-5-(2-oxa-6-azaspiro[3.3]heptan-6-yl)nicotinamide]
EC50: 4650 nM

COc1ncc(N2CC3(C2)CS(=O)(=O)C3)cc1C(=O)Nc1c(C(=O)Nc2ccc(F)c(C(F)(F)F)c2)sc2cc(C(F)(F)F)ccc12 [Example 234, 5-(2,2-dioxido-2-thia-6-azaspiro[3.3]heptan-6-yl)-N-(2-((4-fluoro-3-(trifluoromethyl)phenyl)carbamoyl)-6-(trifluoromethyl)benzo[b]thiophen-3-yl)-2-methoxy-nicotinamide]
EC50: 1340 nM

COc1ccc(CNC(C)(C)CO)cc1C(=O)Nc1c(C(=O)Nc2ccc(F)c(C(F)(F)F)c2)sc2cc(C(F)(F)F)ccc12 [Example 235, N-(4-fluoro-3-(trifluoromethyl)phenyl)-3-(5-(((1-hydroxy-2-methylpropan-2-yl)amino)methyl)-2-methoxy-benzamido)-6-(trifluoromethyl) benzo[b] thiophene-2-carboxamide]
EC50: 1500 nM

COc1ccc(CNCC(C)(C)O)cc1C(=O)Nc1c(C(=O)Nc2ccc(F)c(C(F)(F)F)c2)sc2cc(C(F)(F)F)ccc12 [Example 236, N-(4-fluoro-3-(trifluoromethyl)phenyl)-3-(5-(((2-hydroxy-2-methylpropyl)amino)methyl)-2-methoxy-benzamido)-6-(trifluoromethyl) benzo[b] thiophene-2-carboxamide]
EC50: 1390 nM

COc1ccc(C(=O)NCC(C)(C)O)cc1C(=O)Nc1c(C(=O)Nc2ccc(F)c(C(F)(F)F)c2)sc2cc(C(F)(F)F)ccc12 [Example 237, N3-(2-((4-fluoro-3-(trifluoromethyl)phenyl)carbamoyl)-6-(trifluoromethyl)benzo[b]thiophen-3-yl)-N1-(2-hydroxy-2-methylpropyl)-4-methoxy-isophthalamide]
EC50: 3770 nM

COc1ccc(C(=O)N2CC3(COC3)C2)cc1C(=O)Nc1c(C(=O)Nc2ccc(F)c(C(F)(F)F)c2)sc2cc(C3CC3)ncc12 [Example 238, 6-cyclopropyl-N-(4-fluoro-3-(trifluoromethyl)phenyl)-3-(2-methoxy-5-(2-oxa-6-azaspiro[3.3]heptane-6-carbonyl)benzamido) thieno[3,2-c]pyridine-2-carboxamide]
EC50: 1400 nM

COc1ccc(C(=O)N2CC(C)(C)C2)cc1C(=O)Nc1c(C(=O)Nc2ccc(F)c(C(F)(F)F)c2)sc2cc(Cl)ncc12 [Example 240, 6-chloro-3-(5-(3,3-dimethyl-azetidine-1-carbonyl)-2-methoxy-benzamido)-N-(4-fluoro-3-(trifluoromethyl)phenyl)thieno [3,2-c]pyridine-2-carboxamide]
EC50: 3300 nM

COc1ccc(C(=O)N2CCC(O)CC2)cc1C(=O)Nc1c(C(=O)Nc2ccc(F)c(C(F)(F)F)c2)sc2cc(Cl)ncc12 [Example 241, 6-chloro-N-(4-fluoro-3-(trifluoromethyl)phenyl)-3-(5-(4-hydroxy-piperidine-1-carbonyl)-2-methoxy-benzamido) thieno[3,2-c]pyridine-2-carboxamide]
EC50: 3900 nM

COc1ccc(C2=NOC3CNCC23)cc1C(=O)Nc1c(C(=O)Nc2ccc(F)c(C(F)(F)F)c2)sc2cc(C(F)(F)F)ccc12 (stereo not drawn) [Example 246, N-(4-fluoro-3-(trifluoromethyl)phenyl)-3-(2-methoxy-5-(3a,5,6,6a-tetrahydro-4H-pyrrolo[3,4-d]isoxazol-3-yl)benzamido)-6-(trifluoromethyl) benzo[b] thiophene-2-carboxamide]
EC50: 724 nM

COc1ccc(C2=NOC3CNCC23)cc1C(=O)Nc1c(C(=O)Nc2ccc(F)c(C(F)(F)F)c2)sc2cc(C(F)(F)F)ccc12 (stereo not drawn) [Example 247, N-(4-fluoro-3-(trifluoromethyl)phenyl)-3-(2-methoxy-5-(3a,5,6,6a-tetrahydro-4H-pyrrolo[3,4-d]isoxazol-3-yl)benzamido)-6-(trifluoromethyl) benzo[b] thiophene-2-carboxamide]
EC50: 531 nM
